Measurements as given in paper PMC10840179, “Chemical and biological characterization of Melaleuca subulata (Cheel) Craven leaves’ volatile constituents supported by chemometric analysis and molecular docking” (BMC Complementary Medicine and Therapies, 2024).
Converted amounts (≈) assume the structure as drawn.

Biological target: T1, collagenase
T1 construct: gene colG; docking used another collagenase (printed PDB 465C / 456C)
Assay: FALGPA hydrolysis, ninhydrin, absorbance at […] nm
Assay type: biochemical
Conditions: FALGPA substrate, 50 mM tricine, 37 °C, 20 min preincubation; metal chelator

O=C(O)CN(CCN(CC(=O)O)CC(=O)O)CC(=O)O [EDTA]
IC50 ± SD (% inhibition ± SD) / Anti-collagenase: 315.12 ± 2.21 µg/mL (≈ 1080 µM)
